In a compilation of properties of binary mixtures (doi:10.1021/je300542s):

Assay: xn = mol fraction of the nth substance listed
Details: 101 kPa

O=C1CCCN1 + CC[n+]1ccn(C)c1.F[B-](F)(F)F
speed of sound [m/s]
Details	293.15 K	298.15 K	303.15 K	308.15 K
x1 = 0.0786	1634.5	1622.4	1612.6	1602.5
x1 = 0.0912	1635	–	1613.4	1603.4
x1 = 0.1278	1636.6	1624.6	1615.4	1605.6
x1 = 0.1711	–	1626.5	–	–
x1 = 0.2294	–	–	1620.5	–
x1 = 0.2686	1642.3	1630.8	1622.3	–
x1 = 0.3292	1644.6	1633.3	1624.5	1613.2
x1 = 0.3684	1646.2	1634.8	1626	1614
x1 = 0.4283	1648.7	1637.1	1627.7	1615
x1 = 0.4695	1650.2	1638.6	1628.3	1615.7
x1 = 0.5281	–	1640	1629.2	1615.9
x1 = 0.5711	1653.7	1641.1	–	1616.2
x1 = 0.6283	1655.2	1641.9	1629.5	1615.9
x1 = 0.6603	1656	1642.1	1629.2	1615.3
x1 = 0.7302	1656.7	–	1628	–
x1 = 0.7598	–	1641.5	1627.1	–
x1 = 0.8296	1656.4	1640.1	1624.9	1611
x1 = 0.8901	–	1638.4	–	1608.3

CC[n+]1ccn(C)c1.F[B-](F)(F)F + CN1CCCC1=O
speed of sound [m/s]
Details	293.15 K	298.15 K	303.15 K	308.15 K
x2 = 0.0696	–	–	1598	1586.4
x2 = 0.0871	–	1607.6	1595.9	1584.2
x2 = 0.1273	1615.1	1603.2	–	1579.3
x2 = 0.1676	1611.5	1599.5	1587.2	–
x2 = 0.2658	1605.6	1592	1579	1565.5
x2 = 0.2689	1605.3	1592	–	1565.2
x2 = 0.3228	1603.2	1589	1575.2	1560.7
x2 = 0.3683	1601.7	1586.9	–	1557.7
x2 = 0.4291	1600	1584.2	–	–
x2 = 0.4744	1599.2	1582.6	1566.9	1551
x2 = 0.5227	1597.8	1581	–	1547.9
x2 = 0.5685	1596.9	1579	1562.4	1545.4
x2 = 0.6286	1595	1576.7	1559.3	1541.5
x2 = 0.6703	1593	1574.5	–	1539
x2 = 0.7291	1590.1	1571.2	1553.4	1534.5
x2 = 0.7711	1587.7	–	1550.1	1531.2
x2 = 0.8188	1584	1564.7	–	–
x2 = 0.8887	1577.9	1558.4	1539.7	1520.3
